The values below come from patent US6589956B2, “Benzenesulphonamide compounds” (Les Laboratoires Servier, priority 2001, dated 2003).

A word on the IC50: it is the concentration that gives 50% inhibition.

For assay [1], the system named is platelets in human platelet-rich plasma (5-hydroxytryptamine-induced aggregation). The assay is described as follows: Platelet aggregation in man induced by 5-hydroxytryptamine. It counts as cell-based. The note with it: human PRP, 5-hydroxytryptamine 10 μM in the presence of 0.3 μM adenosine diphosphate and 1 μM adrenalin, read-out: IC50, inhibition of platelet aggregation produced by 5-hydroxytryptamine. As for the experimental part:
(§1) Venous blood is obtained from human volunteers who have not taken aspirin for at least 14 days prior to the experiment. The blood is removed over sodium citrate (0.109 M) (1 vol. of citrate over 9 vol. of blood). Platelet-rich plasma (PRP) is obtained by centrifugation (20° C.) at 200 g for 10 minutes. The number of platelets is on average. 250000 PL/mm^3. The PRP is stored at room temperature until the test and is used within 2 hours of having been taken. The TXA2 agonist U46619 is used at a concentration of 1 μM and 5-hydroxytryptamine is used at a concentration of 10 μM, the latter in the presence of 0.3 μM adenosine diphosphate and 1 μM adrenalin.

For assay [2], the system named is platelets in human platelet-rich plasma (TXA2 agonist U46619-induced aggregation). The assay is described as follows: Platelet aggregation in man induced by the TXA2 agonist U46619. Format: cell-based. The following applies: human PRP, U46619 1 μM, read-out: IC50, inhibition of platelet aggregation induced by the TXA2 agonist. The protocol: as §1

For the compound `O=C(O)CCn1cc(CCN2CCN(c3nsc4ccccc34)CC2)c2cc(CCNS(=O)(=O)c3ccc(Cl)cc3)ccc21` [Example 6, 3-[3-{2-[4-(1,2-Benzisothiazol-3-yl)-1-piperazinyl]ethyl}-5-(2-{[(4-chlorophenyl)sulphonyl]amino}ethyl)-1H-indol-1-yl]propanoic Acid], the IC50 in assay [1] was found to be 3000 nM; in assay [2], 1500 nM.
